Laboratory results reported in ChEMBL document CHEMBL4706510, “Structure-based design, semi-synthesis and anti-inflammatory activity of tocotrienolic amides as 5-lipoxygenase inhibitors” (Eur J Med Chem, 2020).
Calls of active or inactive are those of the source. No cut-off for these calls is given here.

Test system: PMNL
Assay: Induction of 15-HETE formation in human PMNL cells by RP-HPLC analysis
Format: functional, cell-based

Compound | Activity
C/C(=C\CC/C(C)=C/CC[C@]1(C)CCc2c(C)c(O)c(C)c(C)c2O1)CC/C=C(\C)C(=O)NCc1cccnc1 | Active
C/C(=C\CC/C(C)=C/CC[C@]1(C)CCc2c(C)c(O)cc(C)c2O1)CC/C=C(\C)C(=O)NCC1CCCCC1 | Active
C/C(=C\CC/C(C)=C/CC[C@]1(C)CCc2c(C)c(O)c(C)c(C)c2O1)CC/C=C(\C)C(=O)NCC1CCCCC1 | Active
COc1ccc(CNC(=O)/C(C)=C/CC/C(C)=C/CC/C(C)=C/CC[C@]2(C)CCc3c(C)c(O)c(C)c(C)c3O2)cc1 | Active
